Measurements taken from US8906685B2, “Hanging drop devices, systems and/or methods” (The Regents of The University of Michigan, priority 2010, dated 2014).

Legend:
[1] = system: A431.H9 cells; assay: anti-cancer drug sensitivity testing, conventional 2D culture in 96-well plates, alamarBlue cell viability; format: cell-based; settings: Homo sapiens, % cell viability 96 hours after drug treatment, read-out: IC50 of A431.H9 cells cultured in conventional 2D condition
Protocol: To investigate the stability of long-term hanging drop spheroid culture using the designed array plate, osmolality measurements were performed while culturing three types of cells: kidney fibroblast cell (COS7), murine embryonic stem (mES) cell (ES-D3), and a human carcinoma cell that stably express mesothelin (A431.H9). […]
According to the procedure mentioned above, A431.H9 spheroids at the specified cell numbers were formed, and their growth media were exchanged every other day. […] Cellular viability was monitored at 24, 48, 72, and 96 hours of drug incubation using alamarBlue (Invitrogen). […] Following incubation, each A431.H9 hanging drop spheroid sample plate was read using a plate reader (FLx800 Fluorescence Microplate Reader, Biotek) at 525 nm excitation and 590 nm emission to obtain fluorescence intensity readout. As the fluorescence intensity of alamarBlue is directly proportional to cell number, the average percent cell viability for each drug concentration can be calculated easily by normalizing to the 0 μM untreated spheroid control. […]

[2] = system: A431.H9 spheroids; assay: anti-cancer drug sensitivity testing, 3D spheroids in 384 hanging drop array plate, alamarBlue cell viability; format: cell-based; settings: Homo sapiens
Protocol: To investigate the stability of long-term hanging drop spheroid culture using the designed array plate, osmolality measurements were performed while culturing three types of cells: kidney fibroblast cell (COS7), murine embryonic stem (mES) cell (ES-D3), and a human carcinoma cell that stably express mesothelin (A431.H9). Prior to performing hanging drop culture using the plate, ES-D3 cells were cultured in dishes coated with 0.1% w/v porcine gel (Sigma-Aldrich) and maintained in medium consisting of Dulbecco's Modified Eagle's Medium (DMEM) (Gibco 11960, Invitrogen) with 15% v/v fetal bovine serum (FBS) (Gibco 10082, Invitrogen), 4 mM L-glutamin (Invitrogen), 0.1 mM 2-mercapto-ethanol (Sigma-Aldrich), 0.02% v/v sodium pyruvate (Sigma-Aldrich), 100 U ml^−1 penicillin (Invitrogen), 100 U ml^−1 streptomycin (Invitrogen), and 1000 U ml^−1 ESGRO (Invitrogen) which contains leukemia inhibitory factor (LIF). COS7 and A431.H9 cells were cultured in DMEM (Gibco 11965, Invitrogen) with 10% v/v FBS (Gibco 10082, Invitrogen), and 1% v/v antibiotic-antimicotic (Gibco 15240, Invitrogen). All the cells were cultured in a humidified incubator (37° C. in an atmosphere of 5% CO^2). Cell suspensions for the hanging drop experiments were made by dissociating cells with 0.25% trypsin-EDTA (Gibco 25200, Invitrogen), centrifugation of dissociated cells at 1000 rpm for 1 min at room temperature, and re-suspended in growth media. Cell density was estimated using a hemocytometer.
On the spheroid culture plate, a 15 μl cell suspension was dispensed into the access hole at each cell culture site to form a hanging drop. In order to prevent evaporation, 4 ml of distilled water was added into the peripheral water reservoir. In addition, the plate was sandwiched by a well-plate lid and a 96-well plate filled with distilled water, and wrapped using a Parafilm. The growth media was exchanged every other day by taking 5 μl solution from a drop, and adding 7 μl fresh growth media into a drop. For the osmolality measurement, 10 μl sample solution was pipetted out from a drop and transferred to a vapor pressure osmometer (Vapro Model 5520, Wesco, Inc.) for analysis.
According to the procedure mentioned above, A431.H9 spheroids at the specified cell numbers were formed, and their growth media were exchanged every other day. TPZ and 5-FU stock solutions of four times the final testing concentrations (0, 0.1, 1, 10, 100, 1000, 5000 μM) were initially prepared in Dulbecco's phosphate buffered saline (D-PBS) (Gibco 14190, Invitrogen). On day 2 of A431.H9 spheroid culture, 5 μl of the appropriate concentration of TPZ (or 5-FU) stock solutions was subsequently added to each of the 15 μl A431.H9 cell hanging drop droplets. Cellular viability was monitored at 24, 48, 72, and 96 hours of drug incubation using alamarBlue (Invitrogen). Following manufacturer's protocol, 2 μl (one-tenth of each hanging drop sample volume) of alamarBlue was added to each A431.H9 hanging drop spheroid sample and incubated for 2 hours. Following incubation, each A431.H9 hanging drop spheroid sample plate was read using a plate reader (FLx800 Fluorescence Microplate Reader, Biotek) at 525 nm excitation and 590 nm emission to obtain fluorescence intensity readout. As the fluorescence intensity of alamarBlue is directly proportional to cell number, the average percent cell viability for each drug concentration can be calculated easily by normalizing to the 0 μM untreated spheroid control. […]

[3] = system: A431.H9 spheroids; assay: time-lapse images of drug-treated spheroids in 384 hanging drop array plate; format: cell-based, human; settings: all 3 spheroid sizes, 96 hours; for spheroid size over the drug treatment period: 10 μM drug; for spheroid viability / integrity over the drug treatment period: 5000 μM drug
Protocol: According to the procedure mentioned above, A431.H9 spheroids at the specified cell numbers were formed, and their growth media were exchanged every other day. TPZ and 5-FU stock solutions of four times the final testing concentrations (0, 0.1, 1, 10, 100, 1000, 5000 μM) were initially prepared in Dulbecco's phosphate buffered saline (D-PBS) (Gibco 14190, Invitrogen). On day 2 of A431.H9 spheroid culture, 5 μl of the appropriate concentration of TPZ (or 5-FU) stock solutions was subsequently added to each of the 15 μl A431.H9 cell hanging drop droplets. Cellular viability was monitored at 24, 48, 72, and 96 hours of drug incubation using alamarBlue (Invitrogen). Following manufacturer's protocol, 2 μl (one-tenth of each hanging drop sample volume) of alamarBlue was added to each A431.H9 hanging drop spheroid sample and incubated for 2 hours. Following incubation, each A431.H9 hanging drop spheroid sample plate was read using a plate reader (FLx800 Fluorescence Microplate Reader, Biotek) at 525 nm excitation and 590 nm emission to obtain fluorescence intensity readout. As the fluorescence intensity of alamarBlue is directly proportional to cell number, the average percent cell viability for each drug concentration can be calculated easily by normalizing to the 0 μM untreated spheroid control. Anti-cancer drug sensitivity experiments under 2D control conditions were performed in standard tissue culture treated 96-well plates (Corning Costar 3596), with everything else being the same as the 3D spheroid experiments. 50% of culture media was replaced by fresh media every other day.
FIGS. 3a-c show the time-lapse images of A431.H9 spheroids treated with TPZ at 0, 10, and 5000 μM for 3 different spheroid sizes (300, 1500, and 7500-cell spheroids). The control untreated A431.H9 spheroids at all 3 sizes still grow and proliferate properly over the duration of drug treatment. […] The IC50 of A431.H9 cells cultured in conventional 2D condition is about 50 μM, while the IC50 of the A431.H9 3D spheroids for all 3 sizes is about 8 μM. Contrary to most anti-cancer drugs, A431.H9 cells treated with TPZ are more resistant when cultured under 2D conditions rather than 3D conditions.
Similarly, FIGS. 4a-c show the time-lapse images of A431.H9 spheroids treated with 5-FU at 0, 10, and 5000 μM for 3 different spheroid sizes (300, 1500, and 7500-cell spheroids). Again, the control untreated A431.H9 spheroids at all 3 sizes all look healthy and still proliferate properly over the duration of drug treatment. […] By 96 hours after drug treatment, significant portions of cells had already dissociated from the A431.H9 spheroids, indicating drug cytotoxicity. […]

[4] = ALL3, 96 h, 3D condition, all 3 spheroid sizes (300, 1500, 7500-cell), 96 hours after drug treatment

| IC50 [1] | IC50 ([2]; 96 h, 300-cell spheroids, 96 hours after treatment) | IC50 ([2]; 96 h, 1500-cell spheroids, 96 hours after treatment) | IC50 ([2]; 96 h, 7500-cell spheroids, 96 hours after treatment) | IC50 [2, 4] | Structure (SMILES) | spheroid size over the drug treatment period [3] | spheroid viability / integrity over the drug treatment period [3] |
| --- | --- | --- | --- | --- | --- | --- | --- |
| ~0.1 µM | ~3 µM | ~1 µM | ~90 µM | 1 to 100 µM | O=c1[nH]cc(F)c(=O)[nH]1 [5-FU, 5-fluorouracil] | slowly become smaller | spheroid integrity was greatly compromised |
| ~50 µM | – | – | – | ~8 µM | Nc1n[n+]([O-])c2ccccc2[n+]1[O-] [TPZ, tirapazamine] | stayed relatively constant | poor viability |
